Assays:
[1] = test system: NRAS mutant melanoma cell lines; assay: short-term viability assay (CellTiter-Blue, 3 days); format: cell-based, human; conditions: treatment-naïve NRAS mutant melanoma cell lines; ROCK inhibitor added to MAPK/ERK pathway inhibitor
Procedure: FIG. 1A: NRAS mutant melanoma cell lines are sensitive to combinations of ROCK and MEK or ERK inhibitors; Cells were treated with a dilution series of ROCK inhibitor (left panel), MEK inhibitor (middle panel) or ERK inhibitor (right panel) either alone or in combination with MEK/ERK/ROCK inhibitor as indicated. After 3 days total cell numbers were determined with a Cell Titer-Blue assay. The y-axis represents the percentage of living cells.
(§1) For short-term viability assays of inhibitors, cells were plated in 96-well format and treated on the next day with a dilution range of one inhibitor with or without a second inhibitor with a concentration as mentioned in the figure. After 3 days, cells were incubated with CellTiter-Blue (Promega) and fluorescence was measured with a TECAN Infinite M200 microplate reader. For proliferation assays, equal cell numbers were plated on 6 well dishes. The next day, cells were treated with one or more inhibitors and refreshed with medium with inhibitors every 3-4 days. […]
To model inhibitor sensitivity of treatment-naïve NRAS mutant melanoma we made use of a panel of human metastatic melanoma cell lines carrying activating mutations in NRAS codon 61 (R, K, N), including cell lines available in the prior art. […] Presence of the NRAS mutation and absence of exon 15 BRAF mutations has been determined by conventional sequencing. […]

[2] = test system: NRAS mutant melanoma cells SK-MEL-147; assay: SK-MEL-147 xenograft in NOD/SCID mice; format: in vivo; conditions: GSK1120212 0.05 mg/kg or GSK269962A 10 mg/kg alone, oral gavage once daily
Procedure: Melanoma cells (5*10^5 SK-MEL-147) were subcutaneously injected into both flanks of NOD/SCID mice. Tumor sizes were measured with a caliper and tumor volume was calculated by the formula (a*b^2)/2 with ‘a’ being the longest diameter and ‘b’ the respective perpendicular diameter of the tumor. After the tumors reached a size of 20-100 mm3, mice received by oral gavage either vehicle, GSK1120212 (MEKi), (0.05 mg/kg), 10 mg/kg GSK269962A (ROCKi) or both drugs. N=10 for each group, except for ROCKi n=8. Error bars represent standard error of the mean (SEM).
Six to ten week old male NOD/SCID mice were subcutaneously injected with 5*10^5 cells into both flanks. After the tumors reached a size of 50-150 mm^3 mice were treated with 0.05 or 0.1 mg/kg MEK inhibitor (GSK1120212) and/or ROCK inhibitor (GSK266962A, 10 mg/kg). Both GSK1120212 and GSK269962A were applied by oral gavage (in 5% Tween80, 3.25% ethanol, DMSO for GSK1120212 and in 10% Tween80, 6.5% ethanol, 10% DMSO for GSK266962A). Tumors were measured twice a week with a caliper. Tumor volume was calculated by the formula (a*b2)/2, with ‘a’ being the longest diameter and b′ the respective perpendicular diameter of the tumor. Mice were euthanized by CO2 when tumors reached a volume of 1 cm3, according to a protocol approved by the Institutional Animal Experiment Ethics Committee. […]

[3] = test system: NRAS mutant melanoma patients; conditions: cited from earlier work
[4] = test system: BRAF mutant melanoma patients; conditions: cited from earlier work
MEK = conditions: cited from earlier work
[5] = test system: ERK inhibitor resistant sublines of BLM; assay: inhibitor sensitivity of resistant sublines versus parental line; format: cell-based, human; conditions: sublines grown in 1 μM SCH772984
Procedure: NRAS Mutation: Q61R BLM, SK-MEL-147. BRAF mutation: Mel 95.03, mel 888. All cell lines were cultured in Dulbecco's modified Eagle's Medium (DMEM, Gibco) supplemented with 9% fetal calf serum (Sigma) and 1% glutamine. To generate MEK and ERK inhibitor resistant sublines, cells were plated on 10 cm dishes. Medium containing 1 μM SCH772984 was added the next day and changed twice a week. After 2 weeks colonies were picked and expanded in the presence of the inhibitor. In addition, multiple colonies per 10 cm dish were trypsinized and expanded to obtain resistant pools.
as §1, with “days. Cells were stained with crystal violet after 7-11 days of treatment.” for “days.”
We assessed sensitivity to a panel of other inhibitors including ROCK inhibitors but observed mainly slight differences.

c-Raf = c-Raf (Homo sapiens, UniProt P04049); conditions: B-Raf less than c-Raf; cited from earlier work
Chain of c-Raf (P04049 whole entry): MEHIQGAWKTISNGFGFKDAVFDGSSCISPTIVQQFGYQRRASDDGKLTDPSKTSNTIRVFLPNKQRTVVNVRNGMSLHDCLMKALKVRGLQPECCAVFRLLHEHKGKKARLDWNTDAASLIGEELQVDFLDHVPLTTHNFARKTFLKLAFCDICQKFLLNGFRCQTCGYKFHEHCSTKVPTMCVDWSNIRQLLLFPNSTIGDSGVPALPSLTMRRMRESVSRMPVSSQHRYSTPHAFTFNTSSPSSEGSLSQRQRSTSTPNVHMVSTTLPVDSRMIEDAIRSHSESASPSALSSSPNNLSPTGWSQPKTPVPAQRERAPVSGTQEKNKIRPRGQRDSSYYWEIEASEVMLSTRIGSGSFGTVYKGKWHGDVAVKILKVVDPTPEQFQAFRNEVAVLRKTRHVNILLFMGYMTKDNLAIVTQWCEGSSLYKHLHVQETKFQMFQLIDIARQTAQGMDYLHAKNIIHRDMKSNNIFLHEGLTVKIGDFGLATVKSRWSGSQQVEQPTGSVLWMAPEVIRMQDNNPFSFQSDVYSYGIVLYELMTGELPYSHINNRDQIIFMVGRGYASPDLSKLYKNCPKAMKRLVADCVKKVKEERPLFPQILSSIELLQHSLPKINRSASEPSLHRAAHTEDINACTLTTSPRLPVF

O=S(=O)(c1cccc2cnccc12)N1CCCNCC1 [Fasudil]
sensitization to MEK or ERK inhibitors [1]: sensitizers

CCn1c(-c2nonc2N)nc2cnc(Oc3cccc(NC(=O)c4ccc(OCCN5CCOCC5)cc4)c3)cc21 [GSK269962A]
sensitization to MEK or ERK inhibitors [1]: sensitizers | effect as single agent [2]: only a weak effect as single agents

Cn1cnc2c(F)c(Nc3ccc(Br)cc3F)c(C(=O)NOCCO)cc21 [MEK162]
median time to develop resistance [3]: 3.7 months | median time to develop resistance [4]: 3.3 months

O=C(NOCC1CC1)c1ccc(F)c(F)c1Nc1ccc(I)cc1Cl [PDI 84352]
specificity and potency compared to other known MEK inhibitors (MEK): high degree of specificity and potency

Oc1cccc(-c2nc(N3CCOCC3)c3oc4ncccc4c3n2)c1 [PI-103]
sensitivity of resistant sublines compared with parental line [5]: as sensitive to the dual PI3K/mTOR inhibitor PI-103 as the parental line

Cc1ccc(NC(=O)c2cccc(N(C)C)c2)cc1NC(=O)c1ccc(O)cc1 [ZM 336372]
potency for B-Raf relative to c-Raf (c-Raf): c-Raf, (B-Raf 10fold

From patent US9629851B2, “ROCK in combination with MAPK pathway” (Stichting Het Nederlands Kanker Instituut—Antoni van …, priority 2013, dated 2017)
